Test results: ChEMBL document CHEMBL5608163, “Structure modification of anoplin for fighting resistant bacteria” (Eur J Med Chem, 2024)
In brackets after ≈: the same amount, converted by molar mass. Peptide text beside a SMILES is read from it.

What was measured:
Staphylococcus aureus [1] = experiment: Antibacterial activity against Staphylococcus aureus ATCC 25923 assessed as reduction in bacterial growth incubated for 18 to 20 hrs by Mueller Hinton broth dilution method; assay type: functional; details: time 18-20 hrs
Bacillus subtilis = experiment: Antibacterial activity against Bacillus subtilis ATCC 23857 assessed as reduction in bacterial growth incubated for 18 to 20 hrs by Mueller Hinton broth dilution method; assay type: functional; details: time 18-20 hrs
Escherichia coli [2] = experiment: Antibacterial activity against Escherichia coli ATCC 25922 assessed as reduction in bacterial growth incubated for 18 to 20 hrs by Mueller Hinton broth dilution method; assay type: functional; details: time 18-20 hrs
Pseudomonas aeruginosa = experiment: Antibacterial activity against Pseudomonas aeruginosa ATCC 27853 assessed as reduction in bacterial growth incubated for 18 to 20 hrs by Mueller Hinton broth dilution method; assay type: functional; details: time 18-20 hrs
Klebsiella pneumoniae = experiment: Antimicrobial activity against Klebsiella pneumoniae assessed as reduction in bacterial growth incubated for 18 to 20 hrs by Mueller-Hinton broth based microdilution method; assay type: functional; details: time 18-20 hrs
Erythrocyte = experiment: Hemolytic activity in mouse Red blood cells incubated for 1 hr by microplate reader assay; assay type: toxicity, cell-based; details: erythrocyte, 1 h
Staphylococcus aureus [3] = experiment: Antibacterial activity against Staphylococcus aureus ATCC 25923 assessed as reduction in bacterial growth incubated for 18 to 24 hrs by broth microdilution method; assay type: functional; details: time 18-24 hrs
Escherichia coli [4] = experiment: Antibacterial activity against Escherichia coli ATCC 25922 assessed as reduction in bacterial growth by broth microdilution method; assay type: functional
[5] = Hemolytic activity in human RBC; assay type: toxicity, cell-based, Erythrocyte; details: red blood cells

Row | SMILES | MIC (Staphylococcus aureus [1]) | MIC (Bacillus subtilis) | MIC (Escherichia coli [2]) | MIC (Pseudomonas aeruginosa) | MIC (Klebsiella pneumoniae) | HC10 (Erythrocyte) | MIC (Staphylococcus aureus [3]) | MIC (Escherichia coli [4]) | HC50 [5]
1 | CC[C@H](C)[C@H](NC(=O)[C@H](CCCNC(=N)N)NC(=O)[C@@H](CCCCN)NC(=O)[C@H](CC(C)C)NC(=O)[C@H](CC(C)C)NC(=O)CN)C(=O)N[C@H](CCCCN)C(=O)N[C@H](C(=O)N[C@@H](CC(C)C)C(=O)N[C@@H](CC(C)C)C(N)=O)[C@@H](C)O | > 256 µM | 64 µM (≈ 73.8 µg/mL) | 256 µM (≈ 295 µg/mL) | 64 µM (≈ 73.8 µg/mL) | 256 µM (≈ 295 µg/mL) | > 300 µM | – | – | –
2 | CC[C@H](C)[C@H](NC(=O)[C@H](CCCNC(=N)N)NC(=O)[C@H](CCCCN)NC(=O)[C@H](CC(C)C)NC(=O)[C@@H](CC(C)C)NC(=O)CN)C(=O)N[C@@H](CCCCN)C(=O)N[C@H](C(=O)N[C@@H](CC(C)C)C(=O)N[C@H](CC(C)C)C(N)=O)[C@@H](C)O | > 256 µM | 64 µM (≈ 73.8 µg/mL) | 128 µM (≈ 148 µg/mL) | 64 µM (≈ 73.8 µg/mL) | > 256 µM | > 300 µM | – | – | –
3 | CC[C@H](C)[C@H](NC(=O)[C@@H](CCCNC(=N)N)NC(=O)[C@H](CCCCN)NC(=O)[C@H](CC(C)C)NC(=O)[C@H](CC(C)C)NC(=O)CN)C(=O)N[C@@H](CCCCN)C(=O)N[C@@H](C(=O)N[C@@H](CC(C)C)C(=O)N[C@@H](CC(C)C)C(N)=O)[C@H](C)O | > 256 µM | 32 µM (≈ 36.9 µg/mL) | 256 µM (≈ 295 µg/mL) | 128 µM (≈ 148 µg/mL) | > 256 µM | > 300 µM | – | – | –
4 | CC[C@H](C)[C@H](NC(=O)[C@H](CCCNC(=N)N)NC(=O)[C@H](CCCCN)NC(=O)[C@@H](CC(C)C)NC(=O)[C@H](CC(C)C)NC(=O)CN)C(=O)N[C@@H](CCCCN)C(=O)N[C@H](C(=O)N[C@H](CC(C)C)C(=O)N[C@@H](CC(C)C)C(N)=O)[C@@H](C)O | > 256 µM | 16 µM (≈ 18.5 µg/mL) | 32 µM (≈ 36.9 µg/mL) | 8 µM (≈ 9.23 µg/mL) | 256 µM (≈ 295 µg/mL) | > 300 µM | – | – | –
5 | CC[C@H](C)[C@H](NC(=O)[C@H](CCCNC(=N)N)NC(=O)[C@@H](CCCCN)NC(=O)[C@H](CC(C)C)NC(=O)[C@H](CC(C)C)NC(=O)CN)C(=O)N[C@@H](CCCCN)C(=O)N[C@@H](C(=O)N[C@@H](CC(C)C)C(=O)N[C@@H](CC(C)C)C(N)=O)[C@H](C)O | > 256 µM | 32 µM (≈ 36.9 µg/mL) | 256 µM (≈ 295 µg/mL) | 128 µM (≈ 148 µg/mL) | > 256 µM | – | – | – | –
6 | CC[C@H](C)[C@H](NC(=O)[C@H](CCCNC(=N)N)NC(=O)[C@H](CCCCN)NC(=O)[C@H](CC(C)C)NC(=O)[C@H](CC(C)C)NC(=O)CN)C(=O)N[C@H](CCCCN)C(=O)N[C@@H](C(=O)N[C@@H](CC(C)C)C(=O)N[C@@H](CC(C)C)C(N)=O)[C@H](C)O | > 256 µM | 64 µM (≈ 73.8 µg/mL) | > 25 µM | 128 µM (≈ 148 µg/mL) | > 256 µM | > 300 µM | – | – | –
7 | CC[C@H](C)[C@H](NC(=O)[C@H](CCCNC(=N)N)NC(=O)[C@H](CCCCN)NC(=O)[C@H](CC(C)C)NC(=O)[C@H](CC(C)C)NC(=O)CN)C(=O)N[C@@H](CCCCN)C(=O)N[C@H](C(=O)N[C@H](CC(C)C)C(=O)N[C@H](CC(C)C)C(N)=O)[C@@H](C)O | 64 µM (≈ 73.8 µg/mL) | 8 µM (≈ 9.23 µg/mL) | 256 µM (≈ 295 µg/mL) | 8 µM (≈ 9.23 µg/mL) | 128 µM (≈ 148 µg/mL) | > 300 µM | – | – | –
8 | CC[C@H](C)[C@H](NC(=O)[C@H](CCCNC(=N)N)NC(=O)[C@H](CCCCN)NC(=O)[C@@H](CC(C)C)NC(=O)[C@H](CC(C)C)NC(=O)CN)C(=O)N[C@@H](CCCCN)C(=O)N[C@H](C(=O)N[C@H](CC(C)C)C(=O)N[C@H](CC(C)C)C(N)=O)[C@@H](C)O | 64 µM (≈ 73.8 µg/mL) | 8 µM (≈ 9.23 µg/mL) | 256 µM (≈ 295 µg/mL) | 8 µM (≈ 9.23 µg/mL) | 64 µM (≈ 73.8 µg/mL) | > 300 µM | – | – | –
9 | CC[C@H](C)[C@H](NC(=O)[C@@H](CCCNC(=N)N)NC(=O)[C@H](CCCCN)NC(=O)[C@H](CC(C)C)NC(=O)[C@H](CC(C)C)NC(=O)CN)C(=O)N[C@H](CCCCN)C(=O)N[C@H](C(=O)N[C@@H](CC(C)C)C(=O)N[C@@H](CC(C)C)C(N)=O)[C@@H](C)O | > 256 µM | 32 µM (≈ 36.9 µg/mL) | 256 µM (≈ 295 µg/mL) | 32 µM (≈ 36.9 µg/mL) | 256 µM (≈ 295 µg/mL) | > 300 µM | – | – | –
10 | CC[C@H](C)[C@H](NC(=O)[C@H](CCCNC(=N)N)NC(=O)[C@H](CCCCN)NC(=O)[C@@H](CC(C)C)NC(=O)[C@@H](CC(C)C)NC(=O)CN)C(=O)N[C@@H](CCCCN)C(=O)N[C@H](C(=O)N[C@@H](CC(C)C)C(=O)N[C@@H](CC(C)C)C(N)=O)[C@@H](C)O | > 256 µM | 16 µM (≈ 18.5 µg/mL) | 128 µM (≈ 148 µg/mL) | 8 µM (≈ 9.23 µg/mL) | > 256 µM | > 300 µM | – | – | –
11 | CC[C@H](C)[C@H](NC(=O)[C@H](CCCNC(=N)N)NC(=O)[C@H](CCCCN)NC(=O)[C@H](CC(C)C)NC(=O)[C@H](CC(C)C)NC(=O)[C@H](C)N)C(=O)N[C@@H](CCCCN)C(=O)N[C@H](C(=O)N[C@@H](CC(C)C)C(=O)N[C@@H](CC(C)C)C(N)=O)[C@@H](C)O (H-ALLKRIKTLL-NH2) | – | – | – | – | – | – | > 18 µM | > 18 µM | –
12 | CC[C@H](C)[C@H](NC(=O)[C@H](CCCNC(=N)N)NC(=O)[C@H](CCCCN)NC(=O)[C@H](CC(C)C)NC(=O)[C@H](C)NC(=O)CN)C(=O)N[C@@H](CCCCN)C(=O)N[C@H](C(=O)N[C@@H](CC(C)C)C(=O)N[C@@H](CC(C)C)C(N)=O)[C@@H](C)O (H-GALKRIKTLL-NH2) | – | – | – | – | – | – | > 38.7 µM | > 38.7 µM | –
13 | CC[C@H](C)[C@H](NC(=O)[C@H](CCCNC(=N)N)NC(=O)[C@H](CCCCN)NC(=O)[C@H](C)NC(=O)[C@H](CC(C)C)NC(=O)CN)C(=O)N[C@@H](CCCCN)C(=O)N[C@H](C(=O)N[C@@H](CC(C)C)C(=O)N[C@@H](CC(C)C)C(N)=O)[C@@H](C)O (H-GLAKRIKTLL-NH2) | – | – | – | – | – | – | > 34.2 µM | > 34.2 µM | –
14 | CC[C@H](C)[C@H](NC(=O)[C@H](CCCNC(=N)N)NC(=O)[C@H](C)NC(=O)[C@H](CC(C)C)NC(=O)[C@H](CC(C)C)NC(=O)CN)C(=O)N[C@@H](CCCCN)C(=O)N[C@H](C(=O)N[C@@H](CC(C)C)C(=O)N[C@@H](CC(C)C)C(N)=O)[C@@H](C)O (H-GLLARIKTLL-NH2) | – | – | – | – | – | – | 25.6 µM (≈ 28.1 µg/mL) | 14.6 µM (≈ 16 µg/mL) | –
15 | CC[C@H](C)[C@H](NC(=O)[C@H](C)NC(=O)[C@H](CCCCN)NC(=O)[C@H](CC(C)C)NC(=O)[C@H](CC(C)C)NC(=O)CN)C(=O)N[C@@H](CCCCN)C(=O)N[C@H](C(=O)N[C@@H](CC(C)C)C(=O)N[C@@H](CC(C)C)C(N)=O)[C@@H](C)O (H-GLLKAIKTLL-NH2) | – | – | – | – | – | – | 9.4 µM (≈ 10 µg/mL) | 4.7 µM (≈ 5.02 µg/mL) | 151 µM
16 | CC(C)C[C@H](NC(=O)[C@H](CC(C)C)NC(=O)[C@@H](NC(=O)[C@H](CCCCN)NC(=O)[C@H](C)NC(=O)[C@H](CCCNC(=N)N)NC(=O)[C@H](CCCCN)NC(=O)[C@H](CC(C)C)NC(=O)[C@H](CC(C)C)NC(=O)CN)[C@@H](C)O)C(N)=O (H-GLLKRAKTLL-NH2) | – | – | – | – | – | – | > 36.9 µM | > 36.9 µM | –
17 | CC[C@H](C)[C@H](NC(=O)[C@H](CCCNC(=N)N)NC(=O)[C@H](CCCCN)NC(=O)[C@H](CC(C)C)NC(=O)[C@H](CC(C)C)NC(=O)CN)C(=O)N[C@@H](C)C(=O)N[C@H](C(=O)N[C@@H](CC(C)C)C(=O)N[C@@H](CC(C)C)C(N)=O)[C@@H](C)O (H-GLLKRIATLL-NH2) | – | – | – | – | – | – | 10.1 µM (≈ 11.1 µg/mL) | 10.1 µM (≈ 11.1 µg/mL) | 121 µM
18 | CC[C@H](C)[C@H](NC(=O)[C@H](CCCNC(=N)N)NC(=O)[C@H](CCCCN)NC(=O)[C@H](CC(C)C)NC(=O)[C@H](CC(C)C)NC(=O)CN)C(=O)N[C@@H](CCCCN)C(=O)N[C@@H](C)C(=O)N[C@@H](CC(C)C)C(=O)N[C@@H](CC(C)C)C(N)=O (H-GLLKRIKALL-NH2) | – | – | – | – | – | – | 7.1 µM (≈ 7.98 µg/mL) | 14.3 µM (≈ 16.1 µg/mL) | 86.5 µM
19 | CC[C@H](C)[C@H](NC(=O)[C@H](CCCNC(=N)N)NC(=O)[C@H](CCCCN)NC(=O)[C@H](CC(C)C)NC(=O)[C@H](CC(C)C)NC(=O)CN)C(=O)N[C@@H](CCCCN)C(=O)N[C@H](C(=O)N[C@@H](C)C(=O)N[C@@H](CC(C)C)C(N)=O)[C@@H](C)O (H-GLLKRIKTAL-NH2) | – | – | – | – | – | – | 27.9 µM (≈ 31 µg/mL) | 44.1 µM (≈ 49 µg/mL) | –
